# Assay results reported in patent US8795707B2, “Compliant composites for application of drug-eluting coatings to tissue surfaces” (Trustees of Boston University, priority 2008, dated 2014).
# Tests used:
# [1] = tested on: 4T1 metastatic mammary mouse tumor cells; details: implants co-implanted with 4T1 cells; cited from earlier work
# [2] = Release of 10-hydroxycamptothecin from polymer-collagen composites; type: physicochemical; details: PBS at 37° C.
# Method: Using the procedures from Example 2, a composite was constructed from a collagen-based scaffold with a poly(caprolactone) barrier layer and two 10-hydroxycaptothecin-loaded (2% w/w) poly(glycerol monostearate) layers. The composites were submerged in 0.150 mL of PBS at 37° C. At specific time points, an aliquot of release media was removed and the concentration of HCPT was measured by fluorescence spectroscopy (λEx=382 nm and λEm=550 nm, Photon Technology International QM-4/2005 spectrofluorimeter). A calibration curve was constructed from nine samples of known HCPT concentrations with linearity observed from 10 nM to 5 μM (R^2=0.999) from which the drug concentration of each aliquot was determined. After the completion of release, the HCPT remaining in each film was quantified. Films were dissolved CH2Cl2 to release encapsulated drug, the solvent evaporated, and PBS (150 mL) was added under rigorous stirring. The fluorescence spectrum was recorded and remaining drug measured.
# tumor = details: pouch sutured subcutaneously, loaded three days after tumor inoculation; 30 day observation period; cited from earlier work
compound,measurement,setting,value
CC(C)CCCC(C)C1CCC2C3CC(C[131I])C4=C(CCC(O)C4)C3CCC12C (stereo not shown) [^131I-norcholesterol],mice in which tumor growth was prevented,[1],69%
CC[C@@]1(O)C(=O)OCc2c1cc1n(c2=O)Cc2cc3cc(O)ccc3nc2-1 [10-hydroxycamptothecin],HCPT released over the first 24 hours,"[2]; collagen scaffold, poly(caprolactone) barrier, two 2% w/w HCPT layers",about 10%
same,HCPT release rate after the first five weeks,[2]; same composite,0.5 % release per day
same,"HCPT release rate, first two weeks",[2]; same composite,2 % loading per day
same,"HCPT release rate, following three weeks",[2]; same composite,approximately 1 % per day
same,duration of continued release detected,[2]; same composite,at least 6 weeks
Nc1ccn([C@@H]2O[C@H](CO)[C@@H](O)C2(F)F)c(=O)n1 [gemcitabine],mice with no observable tumor mass,tumor,Four of six
